Results from patent US4560758A, “Process for preparing pyrrolo[1,2-a]imidazoles and imidazo[1,2-a]pyridines” (Pennwalt Corporation, priority 1984, dated 1985).
Structures can show the parent of a compound that is named as a salt.

Legend:
[1] = test system: antibody secreting cells in the spleen; assay: Kennedy Plaque Assay (humoral immune system depressed by 6-mercaptopurine; number of plaques); type: in vivo; conditions: for percent change from control (i.e., without 6MP): without 6MP treatment, 6.25 mg/Kg (i.p.) of compound; for change in vivo at 6.25 mg/kg: ip, 60 mg/Kg of 6 MP plus 6.25 mg/Kg (i.p.) of compound, read-out: Percent Restoration (+) or Suppression (-)
Protocol: In this assay, in which the in vitro model used was the Kennedy modification of the Jerne (or plaque) technique (J. C. Kennedy et al, Immunol., 20, p. 253 (1971)), the animal's humoral immune system is depressed artificially by the known immunosuppressant drug, 6-mercaptopurine (6-MP), and then the ability of a drug to either suppress it further or restore it towards normal is evaluated. The change in the number of plaques, which is a direct correlate of the change in the number of antibody secreting cells in the spleen, is used to measure this effect. For example, the compound of Example 11 results in greater than 100% restoration of the number of plaques and thus causes an immunoenhancement of the humoral system. In contrast, the compound of Example 28 results in about 24% further suppression of the number of plaques and thus behaves as an immunosuppressant.
of 6 MP plus 6.25 mg/Kg (i.p.)
^1 without 6MP treatment
^2 percent change from control (i.e., without 6MP)

murine marcophage cells = assay: Chemotaxis assay (migration of macrophages toward complement-derived chemoattractant); type: cell-based
Protocol: In this assay, done according to the methods of R. Synderman et al., Infection & Immunity, 11, p. 488-492 (1975) and M. S. Meltzer et al., J. Natl. Cancer Inst., 54, p. 795-799 (1975), the ability of a drug substance to influence the movement of cells responding to a stimulus induced by some foreign substance or injury is determined. This is vitro assay utilizes a chemoattractant, derived from a component of the immunological system known as complement, to induce murine marcophage cells to migrate toward it. The effect of a drug substance on such movements can be measured by counting the cells. […] For example, the compound of Example 15 stimulates migration by 35.6% at 10^-8 molar concentration and is thus immunoenhancing.

[2] = test system: carrageenan-induced paw edemas; assay: Anti-inflammatory assay, carrageenan-induced paw edema; type: in vivo, Male, Sprague-Dawley rats; conditions: 50 mg/Kg p.o.; dosed two hours before carrageenan
Protocol: The anti-inflammatory properties of various compounds of this invention were determined by carrageenan-induced paw edemas of test rats. Male, Sprague-Dawley rats (Blue Spruce Farm) were ordered at 125-140 g, housed for one week, and allowed food and water ad libitum. At the time of the experiments, only rats weighing 160-200 g were used.
All compounds were dissolved or suspended in a 0.5% water solution of Methocel and orally administered to groups of six rats each. Control rats received Methocel only. Two hours later (unless otherwise stated), paw edema was induced by subcutaneous injection into the plantar surface of the right hind paw of 0.1 ml of a 1.0% homogenized suspension of carrageenan.
Immediately, the volume of the paw was measured by immersing it in mercury to above the lateral mateolus. The mercury in a glass cylinder 25 mm in diameter and 60 mm deep was connected at the bottom on the cylinder by a column of water to a Statham transducer (model P23BB), range 0-5 cm of mercury pressure. The volume was recorded electronically on a Beckman recorder, R511. Three hours later, the inflamed paw volume was measured again, and the change in volume was recorded for each group. The percent inhibition of edema was calculated using the control group paw volume as 100% edema, i.e., as (the change in edema in the control group less the change in edema in the test group) times 100 divided by the change in edema in the control group.

mouse hepatitis virus = assay: Antiviral assay - hepatitis in mice; type: in vivo; conditions: once daily for 3 days; for Mean Liver Score: day 4, 0 (normal) to 4 (extreme discoloration); for Percent Survival: day 21
Protocol: Female mice weighing approximately 21-24 grams were inoculated with 0.1 ml of a mouse liver suspension containing mouse hepatitis virus, which liver suspension is at a dilution of 10^-5.5. Starting twenty-four hours post-virus inoculation, the animals were intraperitoneally ("i.p.") or orally administered the test compound(s) once daily for 3 days. On day 4, one third to one half of each group of mice were sacrificed and their liver removed for examination. Each liver was scored and assigned a number from 0 (normal liver) to 4 (extreme discoloration). The mean liver score per group was computed. The number of animals surviving until termination of the study (day 21) was also recorded. Anti-hepatitis activity is evidenced by increased survivor numbers and improved liver scores.

[3] = 12.5 mg/Kg i.p., control 2.6 (Examples 11, 16, 23), 3.4 (25, 26)
[4] = 12.5 mg/Kg i.p., control 5% (Examples 11, 16, 23), 6% (25, 26)
[5] = 25 mg/Kg i.p., control 2.6 (Examples 11, 23), 3.4 (25, 26)
[6] = 25 mg/Kg i.p., control 5% (Examples 11, 23), 6% (25, 26)

## COc1ccc(C2CN3CCC(Sc4ccccc4)C3=N2)cc1 (stereo not drawn) [Example 8, 2,5,6,7-Tetrahydro-2-p-methoxyphenyl-7-phenylthio-3H-pyrrolo[1,2-a]imidazole hydrochloride]
[1]
  percent change from control (i.e., without 6MP): -36%

## COc1ccc(CSC2CCN3CC(c4ccccc4)N=C23)cc1 (stereo not drawn) [Example 3, 2,5,6,7-Tetrahydro-2-phenyl-7-p-methoxybenzylthio-3H-pyrrolo[1,2-a]imidazole hydrochloride]
Murine marcophage cells; 10^-5 m
  Percent Inhibition (-) or Enhancement (+) of migration: -94.9%
Murine marcophage cells; 10^-7 m
  Percent Inhibition (-) or Enhancement (+) of migration: -64.5%
Murine marcophage cells; 10^-8 m
  Percent Inhibition (-) or Enhancement (+) of migration: -43.0%
Murine marcophage cells; 10^-9 m
  Percent Inhibition (-) or Enhancement (+) of migration: -29.2%
[1]
  change in vivo at 6.25 mg/kg: 108%

## c1ccc(SC2(Sc3ccccc3)CCCN3CC(c4ccccc4)N=C32)cc1 (stereo not drawn) [Example 17, 2,3,5,6,7,8-Hexahydro-2-phenyl-8,8-di(phenylthio)imidazo[1,2-a]pyridine fumarate]
[2]
  Percent Inhibition of carrageenan induced edema: 38.6%
[1]
  percent change from control (i.e., without 6MP): -37%

## COC1(OC)CCCN2C1=NCC2c1ccccc1 (stereo not drawn) [Example 26, 2,3,5,6,7,8-Hexahydro-3-phenyl-8,8-dimethoxy imidazo[1,2-a]pyridine hydrochloride]
Mouse hepatitis virus; [3]
  Mean Liver Score: 2.7
Mouse hepatitis virus; [4]
  Percent Survival: 0%
Mouse hepatitis virus; [5]
  Mean Liver Score: 2.3
Mouse hepatitis virus; [6]
  Percent Survival: 0%

## CCCCSC1CCN2CC(c3ccccc3)N=C12 (stereo not drawn) [Example 7, 2,5,6,7-Tetrahydro-2-phenyl-7-n-butylthio-3H-pyrrolo[1,2-a]imidazole hydrochloride]
[1]
  change in vivo at 6.25 mg/kg: -49%

## c1ccc(CSC2CCCN3CC(c4ccccc4)N=C23)cc1 (stereo not drawn) [Example 14, 2,3,5,6,7,8-Hexahydro-2-phenyl-8-benzylthioimidazo[1,2-a]pyridine fumarate (1:1) salt]
Murine marcophage cells; 10^-5 m
  Percent Inhibition (-) or Enhancement (+) of migration: -29.1%
Murine marcophage cells; 10^-7 m
  Percent Inhibition (-) or Enhancement (+) of migration: -51.0%
Murine marcophage cells; 10^-8 m
  Percent Inhibition (-) or Enhancement (+) of migration: -51.0%
Murine marcophage cells; 10^-9 m
  Percent Inhibition (-) or Enhancement (+) of migration: -50.7%
Murine marcophage cells; 10^-10 m
  Percent Inhibition (-) or Enhancement (+) of migration: -10.2%
Murine marcophage cells; 10^-11 m
  Percent Inhibition (-) or Enhancement (+) of migration: -44.5%

## [O-][S+](c1ccccc1)C1CCCN2CC(c3ccccc3)N=C12 (stereo not drawn) [Example 28, 2,3,5,6,7,8-Hexahydro-2-phenyl-8-phenylsulfinylimidazo[1,2-a]pyridine sulfate]
[1]
  change in vivo at 6.25 mg/kg: -24%
[1]; with 6-MP
  further suppression of the number of plaques: about 24%

## COC1(OC)CCN2CC(c3ccccc3)N=C21 (stereo not drawn) [Example 25, 2,5,6,7-Tetrahydro-2-phenyl-7,7-dimethoxy-3H-pyrrolo[1,2-a]imidazole sulfate]
Mouse hepatitis virus; [3]
  Mean Liver Score: 2.6
Mouse hepatitis virus; [4]
  Percent Survival: 0%
Mouse hepatitis virus; [5]
  Mean Liver Score: 1.1
Mouse hepatitis virus; [6]
  Percent Survival: 0%
Mouse hepatitis virus; 50 mg/Kg i.p., control 3.4
  Mean Liver Score: 1.2
Mouse hepatitis virus; 50 mg/Kg i.p., control 6%
  Percent Survival: 0%

## CSC1CCN2CC(c3ccccc3)N=C12 (stereo not drawn) [Example 1, 2,5,6,7-Tetrahydro-2-phenyl-7-methylthio-3H-pyrrolo[1,2-a]imidazole hydrochloride]
Murine marcophage cells; 10^-5 m
  Percent Inhibition (-) or Enhancement (+) of migration: -25.4%
Murine marcophage cells; 10^-7 m
  Percent Inhibition (-) or Enhancement (+) of migration: -8.8%
Murine marcophage cells; 10^-8 m
  Percent Inhibition (-) or Enhancement (+) of migration: -17.5%
Murine marcophage cells; 10^-9 m
  Percent Inhibition (-) or Enhancement (+) of migration: -29.7%
Murine marcophage cells; 10^-10 m
  Percent Inhibition (-) or Enhancement (+) of migration: -68.2%
Murine marcophage cells; 10^-11 m
  Percent Inhibition (-) or Enhancement (+) of migration: -36.8%
Murine marcophage cells; Mus musculus, Macrophage, 10^-10 molar concentration, read-out: inhibits migration
  inhibition at 0.0001 µM: 68.2%
[1]
  change in vivo at 6.25 mg/kg: 72%

## Cc1ccc(SC2CCCN3CC(c4ccccc4)N=C23)cc1 (stereo not drawn) [Example 12, 2,3,5,6,7,8-Hexahydro-2-phenyl-8-p-tolylthioimidazo[1,2-a]pyridine sulfate (1:1) salt]
[1]
  change in vivo at 6.25 mg/kg: 50%

## c1ccc(SC2(Sc3ccccc3)CCCn3cc(-c4ccccc4)nc32)cc1 [Example 33, 5,6,7,8-Tetrahydro-2-phenyl-8,8-diphenylthio imidazo[1,2-a]pyridine]
[1]
  change in vivo at 6.25 mg/kg: 25%

## c1ccc(SC2CCCN3CC(c4ccccc4)N=C23)cc1 (stereo not drawn) [Example 11, 2,3,5,6,7,8-Hexahydro-2-phenyl-8-phenylthioimidazo[1,2-a]pyridine sulfate (1:1) salt]
Mouse hepatitis virus; 6.25 mg/Kg i.p., control 2.6
  Mean Liver Score: 2.0
Mouse hepatitis virus; 6.25 mg/Kg i.p., control 5%
  Percent Survival: 10%
Mouse hepatitis virus; [3]
  Mean Liver Score: 1.8
Mouse hepatitis virus; [4]
  Percent Survival: 40%
Mouse hepatitis virus; [5]
  Mean Liver Score: 1.8
Mouse hepatitis virus; [6]
  Percent Survival: 40%
[1]
  change in vivo at 6.25 mg/kg: 125%
[1]; with 6-MP
  restoration of the number of plaques: greater than 100%

## CSC1(SC)CCCN2CC(c3ccccc3)N=C21 (stereo not drawn) [Example 16, 2,3,5,6,7,8-Hexahydro-2-phenyl-8,8-di(methylthio)imidazo[1,2-a]pyridine hydrochloride]
Mouse hepatitis virus; 6.25 mg/Kg i.p., control 2.6
  Mean Liver Score: 1.5
Mouse hepatitis virus; 6.25 mg/Kg i.p., control 5%
  Percent Survival: 60%
Mouse hepatitis virus; [3]
  Mean Liver Score: 2.0
Mouse hepatitis virus; [4]
  Percent Survival: 90%
[1]
  change in vivo at 6.25 mg/kg: -25%

## CC(C)SC1CCCN2CC(c3ccccc3)N=C12 (stereo not drawn) [Example 18, 2,3,5,6,7,8-Hexahydro-2-phenyl-8-i-propylthioimidazo[1,2-a]pyridine sulfate]
[2]
  Percent Inhibition of carrageenan induced edema: 40.4%
[1]
  change in vivo at 6.25 mg/kg: 97%

## Clc1ccc(SC2CCCN3CC(c4ccccc4)N=C23)cc1 (stereo not drawn) [Example 13, 2,3,5,6,7,8-Hexahydro-2-phenyl-8-p-chlorophenylthioimidazo[1,2-a]pyridine sulfate (1:1) salt]
[1]
  change in vivo at 6.25 mg/kg: 103%

## c1ccc(SC2CCN3CC(c4ccccc4)N=C23)cc1 (stereo not drawn) [Example 2, 2,5,6,7-Tetrahydro-2-phenyl-7-phenyl-thio-3H-pyrrolo[1,2-a]imidazole hydrochloride]
[1]
  change in vivo at 6.25 mg/kg: 29%

## CSC1CCCN2CC(c3ccccc3)N=C12 (stereo not drawn) [Example 10, 2,3,5,6,7,8-Hexahydro-2-phenyl-8-methylthioimidazo[1,2-a]pyridine hydrochloride]
Murine marcophage cells; 10^-5 m
  Percent Inhibition (-) or Enhancement (+) of migration: -94.1%
Murine marcophage cells; 10^-7 m
  Percent Inhibition (-) or Enhancement (+) of migration: -94.4%
Murine marcophage cells; 10^-8 m
  Percent Inhibition (-) or Enhancement (+) of migration: -88.4%
Murine marcophage cells; 10^-9 m
  Percent Inhibition (-) or Enhancement (+) of migration: -91.7%
Murine marcophage cells; 10^-10 m
  Percent Inhibition (-) or Enhancement (+) of migration: -97.4%
Murine marcophage cells; 10^-11 m
  Percent Inhibition (-) or Enhancement (+) of migration: -97.3%
[1]
  change in vivo at 6.25 mg/kg: 55%

## COc1ccc(CSC2CCCN3CC(c4ccccc4)N=C23)cc1 (stereo not drawn) [Example 15, 2,3,5,6,7,8-Hexahydro-2-phenyl-8-p-methoxybenzylthioimidazo[1,2-a]pyridinefumarate (1:1) salt]
Murine marcophage cells; 10^-5 m
  Percent Inhibition (-) or Enhancement (+) of migration: +2.6%
Murine marcophage cells; 10^-7 m
  Percent Inhibition (-) or Enhancement (+) of migration: +30.1%
Murine marcophage cells; 10^-8 m
  Percent Inhibition (-) or Enhancement (+) of migration: +35.6%
Murine marcophage cells; 10^-9 m
  Percent Inhibition (-) or Enhancement (+) of migration: +31.8%
Murine marcophage cells; 10^-10 m
  Percent Inhibition (-) or Enhancement (+) of migration: +33.8%
Murine marcophage cells; 10^-11 m
  Percent Inhibition (-) or Enhancement (+) of migration: -1.2%
Murine marcophage cells; Mus musculus, Macrophage, 10^-8 molar concentration, read-out: stimulates migration
  activation at 0.01 µM: 35.6%
[1]
  change in vivo at 6.25 mg/kg: 54%
